According to US20240092803A1, “BRIDGED COMPOUNDS AS KRAS G12D INHIBITOR AND DEGRADER AND THE USE THEREOF” (BEIGENE SWITZERLAND GMBH, priority 2021, published 2024):

Key:
[1] = target: KRAS G12D HiBiT in HEK293 KRAS-G12D NanoLuc cell pool (Homo sapiens (Human), UniProt P01116, G12D); experiment: KRAS G12D NanoLuc assay; assay type: cell-based; conditions: 24 h compound treatment
Protocol: HEK293 KRAS-G12D NanoLuc cell pool was used in this study. The cells were stable expressing KRAS G12D HiBiT and LgBiT. Cells were maintained in DMEM supplemented with 10% fetal bovine serum (Thermo Fisher), 50 units/mL penicillin and streptomycin (Thermo Fisher) and kept at 37° C. in a humidified atmosphere of 5% CO2 in air. Cells were reinstated from frozen stocks that were laid down within 30 passages from the cell pool was constructed. 20000 cells per well were seeded a 96-well White with Clear Flat bottom plate for 4 h. Cells were treated with a 10-point dilution series. The final compound concentration is from 0 to 10 μM. After 24 h compound treatment, added 20 μL of CellTiter-Fluor reagent (Promega) to plates, shook for 2 min, incubated at least 30 min in 37° C. Added 25 μL of NanoGlo Live cell reagent (Promega) to the same plate. shook by mini-shaker for 5 min. Measure Luminescence and Fluorescence (380-400nmEx/505nmEm) signals immediately using a PHERAstar FSX reader (BMG Labtech). DC50 determination was performed by fitting the curve of percent inhibition versus the log of the inhibitor concentration using Excel and GraphPad Prism 8.

[2] = target: KRAS G12D protein level in AsPC-1 cells (Homo sapiens (Human), UniProt P01116, G12D); experiment: Western blotting assay in AsPC-1 cells; assay type: cell-based; conditions: 3 uM, 48 h compound treatment, Western blot
Protocol: AsPC-1 cell line was used in this study. Cells were maintained in RPMI-1640 supplemented 10% fetal bovine serum (Thermo Fisher), 50 units/mL penicillin and streptomycin (Thermo Fisher) and kept at 37° C. In a humidified atmosphere of 5% CO2 in air. Cells were reinstated from frozen stocks that were laid down within 30 passages from the original cells purchased. 400000 AsPC-1 cells per well in 1 mL culture medium were seed in the 12-well plate for 4 hours. Cells were treated with an appropriate dilution series of compounds. After 48h compound treatment, medium was aspirated, the cells were washed with PBS, and then 30 μL of 1× protein lysis buffer (Cell Signaling Technology) containing protease inhibitors (Merck) and phosphatase inhibitors (Sigma) was added. The cells were lysed, and after centrifugation, the supernatants were quantified by BCA Protein assay Kit (Thermo Fisher). 4× loading Buffer (Thermo Fisher) was added to equal amounts of total protein from each sample and heated at 95° C. for 5 minutes. […]

With `Cc1ncsc1-c1ccc([C@H](C)NC(=O)[C@@H]2C[C@@H](O)CN2C(=O)[C@@H](NC(=O)CCOCCCN2CCC[C@H]2COc2nc3c(c(N4CC5CCC(C4)N5)n2)CCN(c2cccc4cccc(Cl)c24)C3)C(C)(C)C)cc1` [Example 17] the DC50 [1] was 0.708 µM, the Dmax [1] was 80% and the “KRAS G12D protein level decrease” value [2] was 40%.
